Measurements as given in publication PMC10762035, “Molecular basis of human trace amine-associated receptor 1 activation” (Nature Communications, 2024).
“And” between values parts separate entries of the source, which are not always exact repeats. Equal entries are not always repeated. Structures can show the parent of a compound that is named as a salt. Where two headings read alike, the source gives them in different places.

Molecular target: T1, hTA1 (Homo sapiens, UniProt Q96RJ0)
T1 construct: expressed in transfected cells; host or cells: HEK293T
T1 sequence (Q96RJ0 1-339): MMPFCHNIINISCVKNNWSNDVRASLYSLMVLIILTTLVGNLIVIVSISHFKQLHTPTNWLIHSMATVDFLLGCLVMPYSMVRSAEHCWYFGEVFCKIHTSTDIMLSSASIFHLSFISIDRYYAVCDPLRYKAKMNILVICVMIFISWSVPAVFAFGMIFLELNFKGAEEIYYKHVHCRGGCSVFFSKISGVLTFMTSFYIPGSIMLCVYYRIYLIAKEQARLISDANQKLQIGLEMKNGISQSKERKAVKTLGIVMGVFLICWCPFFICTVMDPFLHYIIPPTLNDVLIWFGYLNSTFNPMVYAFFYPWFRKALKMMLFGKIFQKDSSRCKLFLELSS
Assay: Screen of 89 aminergic compounds at 10 µM, cAMP accumulation in HEK293T cells;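 note: HEK293T cells co-transfected with hTA1 and GloSensor cAMP reporter, cAMP accumulation detected by luminescence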
Format: cell-based

[1] = quadruplicate values, screen at 10 µM

## Oc1cc(O)c2c(c1)O[C@H](c1cc(O)c(O)c(O)c1)[C@H](O)C2 [Epigallocatechin]
[1]
  Luminescence for Screening Data: 5.2 and 5.7 and 5.9 and 6.3

## COc1cc2c(cc1OC)C1CC(=O)C(CC(C)C)CN1CC2 (stereo not shown) [Tetrabenazine]
[1]
  Luminescence for Screening Data: 6.8 and 8.5 and 6.4 and 8.8

## CNc1ccc2c(CCN)cc(=O)oc2c1 [FFN206]
[1]
  Luminescence for Screening Data: 12.7 and 12.5 and 12.8

## NC(=O)C[S+]([O-])C(c1ccccc1)c1ccccc1 (stereo not shown) [Modafanil]
[1]
  Luminescence for Screening Data: 6.8 and 5.8 and 5.7 and 8.1

## CN(C)CCCC1(c2ccc(F)cc2)OCc2cc(C#N)ccc21 (stereo not shown) [Citalopram hydrobromide]
[1]
  Luminescence for Screening Data: 6.1 and 6.2 and 7.2 and 6.9

## O=c1[nH]c2ccccc2n1C1CCN(CCCC(c2ccc(F)cc2)c2ccc(F)cc2)CC1 [pimozide]
[1]
  Luminescence for Screening Data: 4.4 and 4.3 and 5

## CN1CCc2ccccc2Cc2[nH]c3ccccc3c2CC1 [LE300]
  Luminescence for Screening Data: 5.7 and 3.6 and 5.5 and 5

## CCN(CC)C(=O)[C@@H]1C=C2c3cccc4[nH]c(Br)c(c34)C[C@H]2N(C)C1 [2-Br LSD]
[1]
  Luminescence for Screening Data: 10.4 and 10.1 and 9.5 and 7.6

## CN1C[C@H](C(=O)N[C@]2(C)O[C@@]3(O)[C@@H]4CCCN4C(=O)[C@H](Cc4ccccc4)N3C2=O)C=C2c3cccc4c3c(cn4C)C[C@H]21.O=C(O)/C=C\C(=O)O [Methylergotamine maleate]
[1]
  Luminescence for Screening Data: 42.5 and 31.9 and 34.9 and 38.8

## CNC1(c2ccccc2Cl)CCCCC1=O (stereo not shown) [Ketamine]
[1]
  Luminescence for Screening Data: 4.7 and 6.1 and 5.5 and 5.6

## CN1CCC(=C2c3ccccc3Sc3ccccc32)CC1 [Pimethixine]
[1]
  Luminescence for Screening Data: 3.8 and 3.7

## O=C1c2ccccc2S(=O)(=O)N1CCCCN1CCN(c2ncccn2)CC1 [Ipsapirone]
[1]
  Luminescence for Screening Data: 6.8 and 5.5 and 5.4

## NC(=O)c1ccc(F)c2c1C[C@@H](N(C1CCC1)C1CCC1)CO2 [NAD 299]
[1]
  Luminescence for Screening Data: 6.3 and 5.6 and 4.8 and 5.9

## CN1[C@@H](CC(=O)c2ccccc2)CCC[C@H]1C[C@H](O)c1ccccc1.CN1[C@@H](CC(=O)c2ccccc2)CCC[C@H]1C[C@H](O)c1ccccc1.O=S(=O)(O)O [Lobeline sulfate]
[1]
  Luminescence for Screening Data: 7.2 and 5 and 5.7 and 5.4

## C#CCN(C)Cc1ccccc1 [Pargyline hydrochloride]
[1]
  Luminescence for Screening Data: 8.3 and 10.1 and 8.8 and 8.5

## C=CCc1ccccc1OCC(O)CNC(C)C (stereo not shown) [Alprenolol]
[1]
  Luminescence for Screening Data: 10.1 and 8.4 and 7.8 and 6.7
